{
  "source": "patent US20240024317A1",
  "about": "“CANCER TREATMENT USING BOSENTAN IN COMBINATION WITH A CHECKPOINT INHIBITOR” (Materia Therapeutics Inc., priority 2020, published 2024)",
  "key": {"[1]": {"system": "orthotopic E0771 breast tumors", "test": "Pimonidazole hypoxia staining", "type": "in vivo, mice", "settings": "1 mg/kg; E0771 (FIG. 2A)", "procedure": "Because reducing collagen I levels and tissue stiffness decompresses vessels, it was hypothesized that hypoxia, which is an indicator of decreased blood flow to the tumor, would be reduced with bosentan treatment. […] For the hypoxia studies, Mice bearing orthotopic E0771 or 4T1 breast tumors were injected (intraperitoneal) with 60 mg/kg of pimonidazole HCl at 2 hr prior to tumor removal. Prior to tumors excision, animals were anesthetized via Avertin (200 mg/kg, intraperitoneal). Primary tumors were then excised, fixed in 4% PFA, embedded in OCT and processed accordingly for IHC. Hypoxic regions were detected using the mouse anti-pimonidazole RED 549 conjugate antibody (HP7-100Kit, 1:100). Hypoxic area fraction across different treatment groups was normalized to DAPI staining. For fluorescent immunohistochemistry, tumors were removed, washed twice in 1× PBS for 10 min and incubated with 4% PFA overnight at 4° C. The fixative was aspirated, and samples washed twice in 1× PBS for 10 min. Fixed tissues were embedded in optimal cutting temperature compound in cryomolds (Tissue-Tek) and frozen completely at −20° C. […] CD31 signal was detected with Alexa Fluor-488 anti-rabbit IgG (H+L) and CD3 signal with Alexa Fluor-647 anti-rat IgG (H+L) secondary antibodies. Tumor associated T cell and vessel content was determined by the CD31 and CD3 area fraction normalized to DAPI staining. […]"}, "4T1 tumors [2]": {"system": "4T1 tumors", "test": "CD3/CD31 immunofluorescence: T cell proximity to endothelial cells and area fractions", "type": "in vivo, mice", "procedure": "Because reducing collagen I levels and tissue stiffness decompresses vessels, it was hypothesized that hypoxia, which is an indicator of decreased blood flow to the tumor, would be reduced with bosentan treatment. […] For the hypoxia studies, Mice bearing orthotopic E0771 or 4T1 breast tumors were injected (intraperitoneal) with 60 mg/kg of pimonidazole HCl at 2 hr prior to tumor removal. Prior to tumors excision, animals were anesthetized via Avertin (200 mg/kg, intraperitoneal). Primary tumors were then excised, fixed in 4% PFA, embedded in OCT and processed accordingly for IHC. Hypoxic regions were detected using the mouse anti-pimonidazole RED 549 conjugate antibody (HP7-100Kit, 1:100). Hypoxic area fraction across different treatment groups was normalized to DAPI staining. For fluorescent immunohistochemistry, tumors were removed, washed twice in 1× PBS for 10 min and incubated with 4% PFA overnight at 4° C. The fixative was aspirated, and samples washed twice in 1× PBS for 10 min. Fixed tissues were embedded in optimal cutting temperature compound in cryomolds (Tissue-Tek) and frozen completely at −20° C. Transverse 30 μm thick tumor sections were produced using the Tissue-Tek Cryo3 (SAKURA). Positively charged HistoBond microscope slides (Marienfeld) were used to bond four tissue sections per tumor. Tumor sections were then incubated in blocking solution (10% fetal bovine serum, 3% donkey serum, 1× PBS) for 2h and immunostained with the following primary antibodies; rabbit anti-Collagen I (ab4710, Abcam 1:100), rabbit anti-CD31 (ab28364, Abcam 1:50), rat anti-CD3 (17A2, BioLegend 1:50) and aSMA (ab5694, Abcam 1:50) overnight at 4° C. Secondary antibodies against rabbit, mouse or rat conjugated to Alexa Fluor 488 or 647 (Invitrogen) were used at 1:400 dilution. […] CD31 signal was detected with Alexa Fluor-488 anti-rabbit IgG (H+L) and CD3 signal with Alexa Fluor-647 anti-rat IgG (H+L) secondary antibodies. Tumor associated T cell and vessel content was determined by the CD31 and CD3 area fraction normalized to DAPI staining. […]"}, "[3]": {"system": "spontaneous 4T1 metastases", "test": "Survival of mice with spontaneous metastases after surgical removal of primary tumors", "type": "in vivo", "settings": "1 mg/kg bosentan combined with ICB cocktail, n=8-10", "procedure": "(§1) To determine if a stiffness-reducing and hypoxia-reducing (blood flow-increasing) regimen of bosentan could enhance the efficacy of an ICB cocktail of anti-PD-1 (mouse monoclonal anti-PD-1 CD279, clone RMP1-14, BioXCell) and anti-CTLA-4 (mouse monoclonal anti-CTLA-4 CD152, clone 9D9, BioXCell) antibodies, mice bearing primary tumors in a neo-adjuvant setting were administered various treatments. Therapy was administered before removing the primary tumors surgically to assess mice survival against spontaneous metastases that arose on treatment. For the combinatorial treatment with bosentan and Immunotherapy studies, bosentan 1 mg/kg or equal volume of diluent (control group) was administered by intraperitoneal injection (i.p.) once a day for 14 days, starting from once the tumor volumes reached an average size of 5 mm diameter. Immunotherapy was administrated as a cocktail of 10 mg/kg anti-PD-1 (CD279, clone RMP1-14, BioXCell) and 5 mg/kg anti-CTLA-4 (CD152, clone 9D9) following dilution in the recommended InVivoPure pH 7.0 Dilution Buffer (BioXCell). The immunotherapy cocktail was administered i.p. when tumors reached an average size of 200 mm^3 every three days for three doses. For the immunotherapy studies, animals were also treated with a non-targeting isotype control antibody (BioXCell). Primary tumors were excised when they reached an average size of 700 mm^3 and the tissue was sutured for the study of the metastatic tumors. Planar dimensions (x, y) of tumor were monitored every 2-3 days using a digital caliper and tumor volume was estimated from the volume of an ellipsoid and assuming that the third dimension, z, is equal to […]. For the overall survival studies, the ending point was the time to mouse death. […] In the E0771 study, 8 out of 10 mice initiated survived. […] The remaining five mice were rechallenged with a second inoculation of E0771 cells and the tumor growth rates were compared against healthy age-matched control mice."}, "[4]": {"system": "spontaneous E0771 metastases", "test": "Survival of mice with spontaneous metastases after surgical removal of primary tumors", "type": "in vivo", "procedure": "as §1"}, "E0771 cancer cells": {"system": "E0771 cancer cells", "test": "Rechallenge of surviving mice with a second tumor cell inoculation", "type": "in vivo", "procedure": "To determine if a stiffness-reducing and hypoxia-reducing (blood flow-increasing) regimen of bosentan could enhance the efficacy of an ICB cocktail of anti-PD-1 (mouse monoclonal anti-PD-1 CD279, clone RMP1-14, BioXCell) and anti-CTLA-4 (mouse monoclonal anti-CTLA-4 CD152, clone 9D9, BioXCell) antibodies, mice bearing primary tumors in a neo-adjuvant setting were administered various treatments. Therapy was administered before removing the primary tumors surgically to assess mice survival against spontaneous metastases that arose on treatment. For the combinatorial treatment with bosentan and Immunotherapy studies, bosentan 1 mg/kg or equal volume of diluent (control group) was administered by intraperitoneal injection (i.p.) once a day for 14 days, starting from once the tumor volumes reached an average size of 5 mm diameter. Immunotherapy was administrated as a cocktail of 10 mg/kg anti-PD-1 (CD279, clone RMP1-14, BioXCell) and 5 mg/kg anti-CTLA-4 (CD152, clone 9D9) following dilution in the recommended InVivoPure pH 7.0 Dilution Buffer (BioXCell). […] Planar dimensions (x, y) of tumor were monitored every 2-3 days using a digital caliper and tumor volume was estimated from the volume of an ellipsoid and assuming that the third dimension, z, is equal to x y. […]"}, "4T1 tumors [5]": {"system": "4T1 tumors", "test": "Shear wave elastography of tumor stiffness (Example 5)", "type": "in vivo, mice", "settings": "bosentan 1 mg/kg", "from_the_text": "Ultrasound elastography. Shear wave elestography was employed on a premier Philips EPIQ Elite Ultrasound system using a handheld linear array (eL 18-4) transducer. The method generates shear wave velocity via an acoustic push pulse, creating a color mapped elastogram where red indicates hard tissue and blue indicates soft tissue. A confidence display was also used as a reference of the highest shear wave quality of the user-defined region of interest (ROI). The average value of the tumor region was automatically generated by the system under default scanner settings and expressed in kPa. The settings that were used were: frequency, 10 MHz; power, 52%; B-mode gain, 22 dB; dynamic range, 62 dB. Shear wave imaging was performed prior to immunotherapy cocktail treatment on day 19 and as well on days 23 and 26."}},
  "data": [
    {"smiles": "COc1ccccc1Oc1c(NS(=O)(=O)c2ccc(C(C)(C)C)cc2)nc(-c2ncccn2)nc1OCCO", "note": "[bosentan, 4-tert-butyl-N-[6-(2-hydroxy-ethoxy)-5-(2-methoxy-phenoxy)-2-(pyrimidin-2-yl)pyrimidin-4-yl] benzenesulfonamide]", "values": [
      {"measurement": "hypoxia (pimonidazole staining)", "setting": "[1]", "value": "reduced hypoxia"},
      {"measurement": "T cells colocalizing with endothelial cells (CD3+/CD31+ proximity)", "setting": "4T1 tumors [2]", "value": "more T cells colocalizing with endothelial cells"},
      {"measurement": "area fraction of CD3+ staining", "setting": "4T1 tumors [2]", "value": "no change"},
      {"measurement": "area fraction of CD31+ staining", "setting": "4T1 tumors [2]", "value": "no change"},
      {"measurement": "survival, median overall survival (Kaplan-Meier)", "setting": "[3]", "value": "potentiated"},
      {"measurement": "survival (Kaplan-Meier)", "setting": "[4]; 1 mg/kg bosentan combined with ICB cocktail, E0771", "value": "potentiated"},
      {"measurement": "mice surviving", "setting": "[4]; E0771 study, bosentan combined with ICB cocktail", "value": "8 out of 10"},
      {"measurement": "macrometastases in the lungs", "setting": "[4]; three surviving mice sacrificed, bosentan combined with ICB cocktail", "value": "no evidence of macrometasteses"},
      {"measurement": "mice with tumors appearing after rechallenge", "setting": "E0771 cancer cells; five surviving mice (bosentan plus ICB) rechallenged", "value": "two out of the five"},
      {"measurement": "tumor growth rate after rechallenge", "setting": "E0771 cancer cells; five surviving mice (bosentan plus ICB) versus healthy age-matched control mice", "value": "grew much slower"},
      {"measurement": "reduction of tumor stiffness", "setting": "4T1 tumors [5]", "value": "more than half"},
      {"measurement": "tumor stiffness (elastic modulus) after bosentan treatment", "setting": "4T1 tumors [5]", "value": "~20", "unit": "kPa"}
    ]}
  ]
}
